Experiments:
Coagulation factor X [1] = target: T1, Coagulation factor X (Homo sapiens, UniProt P00742); assay: Equilibrium dissociation constant of factor Xa inhibition
Coagulation factor X [2] = target: T1, Coagulation factor X; assay: Inhibitory activity against Plasma coagulation enzyme factor Xa; Value expressed as k Act/k UNCAT (uncatalyzed); format: cell-free
Coagulation factor X [3] = target: T1, Coagulation factor X; assay: Second-order rate constant of factor Xa inhibition

T1 sequence (P00742 41-179 limits assumed): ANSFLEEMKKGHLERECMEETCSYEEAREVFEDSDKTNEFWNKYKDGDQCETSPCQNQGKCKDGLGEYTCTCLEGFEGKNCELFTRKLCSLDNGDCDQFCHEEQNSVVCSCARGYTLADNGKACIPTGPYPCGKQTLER
T1 sequence (P00742 235-488 limits assumed): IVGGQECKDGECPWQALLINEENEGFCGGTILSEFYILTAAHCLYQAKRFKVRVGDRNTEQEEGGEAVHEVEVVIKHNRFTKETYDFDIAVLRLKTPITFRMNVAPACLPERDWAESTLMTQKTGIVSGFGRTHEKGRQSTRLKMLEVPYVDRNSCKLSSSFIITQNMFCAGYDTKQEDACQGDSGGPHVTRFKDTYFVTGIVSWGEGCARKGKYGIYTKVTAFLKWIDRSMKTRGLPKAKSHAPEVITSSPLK

Row | Structure (SMILES) | Kd (Coagulation factor X [1]) [µM] | Acceleration (Coagulation factor X [2]) | k act (Coagulation factor X [3]) [M⁻¹ s⁻¹]
1 | CO[C@H]1O[C@H](COS(=O)(=O)O)[C@@H](O[C@@H]2O[C@H](C(=O)O)[C@@H](O[C@H]3O[C@H](COS(=O)(=O)O)[C@@H](O)[C@H](O)[C@H]3NS(=O)(=O)O)[C@H](O)[C@H]2O)[C@H](OS(=O)(=O)O)[C@H]1NS(=O)(=O)O | 2 | 320 | 45000
2 | O=S(=O)(O)Oc1cc2c(c(OS(=O)(=O)O)c1)C[C@@H](OS(=O)(=O)O)[C@H](c1ccc(OS(=O)(=O)O)c(OS(=O)(=O)O)c1)O2 | 3.5 | 20.8 | 6750
3 | O=c1c(OS(=O)(=O)O)c(-c2ccc(OS(=O)(=O)O)cc2OS(=O)(=O)O)oc2cc(OS(=O)(=O)O)cc(OS(=O)(=O)O)c12 | 1.8 | 21.8 | 7100

Further lines, results first:

Row | Kd (Coagulation factor X [1]) [µM] | Acceleration (Coagulation factor X [2]) | k act (Coagulation factor X [3]) [M⁻¹ s⁻¹] | Structure (SMILES)
4 | 10.7 | 10.4 | 3380 | O=S(=O)(O)Oc1cc2c(c(OS(=O)(=O)O)c1)C[C@H](OS(=O)(=O)O)[C@H](c1ccc(OS(=O)(=O)O)c(OS(=O)(=O)O)c1)O2
5 | 26.1 | 8.5 | 2770 | O=S(=O)(O)Oc1cc2c(c(OS(=O)(=O)O)c1)CC(OS(=O)(=O)O)C(c1ccc(OS(=O)(=O)O)c(OS(=O)(=O)O)c1)O2 (stereo unspecified)
6 | 17 | 17.5 | 5700 | O=c1c(OS(=O)(=O)O)c(-c2ccc(OS(=O)(=O)O)c(OS(=O)(=O)O)c2)oc2cc(OS(=O)(=O)O)cc(OS(=O)(=O)O)c12
7 | 95 | 19.7 | 6400 | CO[C@@H]1O[C@@H](C(=O)O)[C@@H](O[C@H]2OC(COS(=O)(=O)O)=C[C@H](OS(=O)(=O)O)[C@H]2NS(=O)(=O)O)[C@H](O)[C@H]1OS(=O)(=O)O

From ChEMBL document CHEMBL1136588, “Exploring new non-sugar sulfated molecules as activators of antithrombin” (Bioorg Med Chem Lett, 2003)
